From patent publication US4716230A, “Certain bis(di-2 or 4-pyridyl-phosphino) alkanes #10 having anti-tumor properties” (Smithkline Beckman Corporation, priority 1986, dated 1987)
Values joined by “and” are separate entries in the source; they are usually repeats but may differ in a detail not shown here. Equal values may be shown once.

What was measured:
P388 leukemia = assay: in vivo ip P388 lymphocytic leukemia mouse model (increase in lifespan); design: species or system mouse (B6D2F1); settings: mice bearing ip P388 leukemia; ip Days 1-5; figures separated by slashes are from separate experiments; active if ≥25 percent ILS
Source text: P388 lymphocytic leukemia is currently the most widely used animal tumor model for screening for antitumor agents and for detailed evaluation of active compounds. This tumor system is widely accepted as an antitumor agent screening tool because it is sensitive to virtually all of the clinically active antineoplastic agents; quantitative and reproducible; amenable for large-scale screening; and predictive for activity in other animal tumor models.
(§1) 10^6 P388 leukemia cells are inoculated ip in B6D2F1 mice. Twenty-four hours later, if the tumor inoculum proves to be free of bacterial contamination (as determined by 24 hours incubation in thioglycollate broth), animals are randomized into groups of 6 and housed in shoebox cages. The compound to be evaluated is dissolved in a minimal volume of either N,N-dimethylacetamide (DMA) or 95% ethanol (depending upon solubility). An equal volume of saline is added; if the drug comes out of solution an equal volume of polyethoxylated castor oil is added and then saline qs to a concentration such that the desired dose is delivered in 0.5 ml. The final concentration of DMA, ethanol and polyethoxylated castor oil is […]. Dilutions for lower doses are made with saline so there is a decreasing proportion of organic solvents in the vehicle with decreasing dosage. These vehicles provide soluble formulations (or suspensions). Formulations are prepared immediately prior to injection. The compound is administered ip on Days 1 through 5 (i.e. treatment is initiated 24 hrs after tumor inoculation). Each experiment includes three groups of 6 animals as untreated controls and animals treated with a positive control, cisplatin, at two dose levels. Animals are weighed as a group on Days 1, 5 and 9 and average weight change (Δwt.) is used as a reflection of toxicity. Each experiment also includes an inoculum titration--groups of 8 mice inoculated ip with 10^5 to […] P388 leukemia cells. The titration is used to calculate cell kill achieved by treatment with drugs. Animals are monitored daily for mortality and experiments are terminated after 45 days. The endpoint is median survival time (MST) and increase in lifespan (ILS) which is the percentage of increase in MST relative to untreated controls. Untreated controls inoculated ip with 10^6 P388 leukemia cells generally survive for a median of 9 or 11 days. A drug is considered active if it produces ≥25 percent ILS.
^(b) maximum increase in lifespan produced in mice bearing ip P388
leukemia (figures separated by slashes indicate data generated in seperat

[1] = maximally tolerated dose in mice, ip qD × 5 regimen; settings: mouse, in vivo, B6D2F female mice
Method: as §1
^(a) maximally tolerated dose for B6D2F female mice on an ip qD

[2] = Struck et al., J. Med. Chem., 9, 414-416 (1966); cited from earlier work

Compound | ILS (max) (maximum increase in lifespan) (P388 leukemia) | MTD [1] | cytotoxic activity [2]
c1coc(P(CCP(c2ccco2)c2ccco2)c2ccco2)c1 [Compound 4, 1,2-Bis(di-2-furylphosphino)ethane] | 60% and 30% and 50% | 64 mg/kg | 
c1ccc(P(CCP(c2ccccc2)c2ccccc2)c2ccccc2)cc1 [1,2-bis(diphenylphosphino)ethane] |  |  | cytotoxic activity
c1csc(P(CCP(c2cccs2)c2cccs2)c2cccs2)c1 [Compound 3, 1,2-Bis(di-2-thienylphosphino)ethane] | 60% and 55% | 16 mg/kg | 
c1ccc(P(CCP(c2ccccn2)c2ccccn2)c2ccccn2)nc1 [Compound 1, 1,2-Bis(di-2-pyridylphosphino)ethane] | 30% and 20% | 16 mg/kg | 
c1cc(P(CCP(c2ccncc2)c2ccncc2)c2ccncc2)ccn1 [Compound 2, 1,2-Bis(di-4-pyridylphosphino)ethane] | 35% and 37% | 32 mg/kg | 
